Marks after values point to notes of the source that are not given here.
Columns and labels:
[1] = molecular target: T1, DcR1-His (recombinant human TRAIL R3/TNFRSF10C) (Homo sapiens, UniProt O14798); experiment: Binding specificity by chemiluminescent enzyme immunoassay (CLEIA); conditions: antibody 200, 40 and 8 ng/mL; 1 hour, 37° C.
T1 construct: His; purchased Novoprotein Science
T1 sequence (O14798 26-236): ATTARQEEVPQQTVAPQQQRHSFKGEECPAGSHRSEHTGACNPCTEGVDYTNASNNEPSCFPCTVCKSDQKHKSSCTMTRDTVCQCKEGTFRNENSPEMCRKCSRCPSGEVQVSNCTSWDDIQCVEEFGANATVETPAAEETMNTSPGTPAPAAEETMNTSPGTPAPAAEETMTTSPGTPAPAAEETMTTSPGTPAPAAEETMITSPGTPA
Method: (§1) The binding specificity of HuCTB006 was evaluated by chemiluminescent enzyme immunoassay (CLEIA).
(§2) HuCTB006 was diluted into 200, 40 and 8 ng/mL and then added to the wells. After 1 hour incubation in 37° C., the plate was washed. The binding of HuCTB006 with immobilized antigens was detected with HRP labeled secondary antibody and a substrate solution.

[2] = molecular target: T2, OPG-His (recombinant human osteroprotegerin/TNFRSF11B) (Homo sapiens, UniProt O00300); experiment: as above; conditions: antibody 200, 40 and 8 ng/mL; 1 hour, 37° C.
T2 construct: His; purchased Wuxi Pharmatech Co. Ltd
T2 sequence (O00300 22-401): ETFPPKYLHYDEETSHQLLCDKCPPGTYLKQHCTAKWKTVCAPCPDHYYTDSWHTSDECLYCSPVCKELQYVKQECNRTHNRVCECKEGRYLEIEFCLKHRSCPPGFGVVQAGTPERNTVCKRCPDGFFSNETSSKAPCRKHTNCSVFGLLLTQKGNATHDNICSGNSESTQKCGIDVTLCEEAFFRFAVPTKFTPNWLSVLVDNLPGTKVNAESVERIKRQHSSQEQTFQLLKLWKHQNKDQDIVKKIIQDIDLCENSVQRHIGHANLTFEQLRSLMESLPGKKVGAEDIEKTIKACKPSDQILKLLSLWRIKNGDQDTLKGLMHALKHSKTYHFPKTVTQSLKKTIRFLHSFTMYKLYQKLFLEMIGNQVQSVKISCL
Method: as §1, §2

DR4-His-EC = molecular target: T3, DR4-His-EC (Homo sapiens, UniProt O00220); experiment: as above; conditions: antibody 200, 40 and 8 ng/mL; 1 hour, 37° C.
T3 construct: His; made in house; host or cells: E. coli
T3 sequence (O00220 24-468): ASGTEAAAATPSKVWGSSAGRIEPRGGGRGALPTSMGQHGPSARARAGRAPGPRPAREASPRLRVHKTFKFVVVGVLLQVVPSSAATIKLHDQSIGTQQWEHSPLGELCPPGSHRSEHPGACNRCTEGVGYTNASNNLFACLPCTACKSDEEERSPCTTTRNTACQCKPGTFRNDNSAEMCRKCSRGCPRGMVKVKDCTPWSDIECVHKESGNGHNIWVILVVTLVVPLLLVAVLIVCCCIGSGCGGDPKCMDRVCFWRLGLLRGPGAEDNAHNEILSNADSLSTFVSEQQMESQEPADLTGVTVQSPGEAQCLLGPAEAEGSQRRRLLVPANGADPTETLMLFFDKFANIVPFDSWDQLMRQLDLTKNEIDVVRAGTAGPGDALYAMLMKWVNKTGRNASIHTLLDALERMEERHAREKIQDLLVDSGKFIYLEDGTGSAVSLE
Method: as §1, §2

[3] = molecular target: T4, DcR2-His (recombinant human TRAIL R4/TNFRSF10D) (Homo sapiens, UniProt Q9UBN6); experiment: as above; conditions: antibody 200, 40 and 8 ng/mL; 1 hour, 37° C.
T4 construct: His; purchased Sino Biological
T4 sequence (Q9UBN6 56-386): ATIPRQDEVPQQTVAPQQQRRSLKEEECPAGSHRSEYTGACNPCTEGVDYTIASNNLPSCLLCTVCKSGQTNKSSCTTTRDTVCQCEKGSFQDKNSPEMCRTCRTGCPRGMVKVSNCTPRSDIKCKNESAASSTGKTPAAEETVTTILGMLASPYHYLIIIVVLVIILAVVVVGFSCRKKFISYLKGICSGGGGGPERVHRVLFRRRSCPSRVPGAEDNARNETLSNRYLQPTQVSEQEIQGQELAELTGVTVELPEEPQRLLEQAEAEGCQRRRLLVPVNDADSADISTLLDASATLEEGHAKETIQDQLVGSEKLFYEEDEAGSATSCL
Method: as §1, §2

BT-20 = experiment: In vitro cytotoxic sensitivity of CTB006; type: cell-based, human; conditions: BT-20, Breast cancer
SW620 = experiment: In vitro cytotoxic sensitivity of CTB006; type: cell-based, human; conditions: SW620, Colorectal cancer
H2122 = experiment: Human lung cancer H2122 subcutaneous model (Day 38 after treatment); conditions: for Tumor regression: treatment groups
Method: Tumor cells (i.e., MIA-PaCa-2, WiDr, H2122, colo205) were inoculated in nude mice's flank at 5×10^6 cells per mouse. The mice were grouped when the average volume of tumors reached about 100˜200 mm^3. “QW”=weekly dose. “Q3d”=dosed every third day. “BiW”=biweekly.
The bodyweight and major/minor axis of the mice were measured twice a week, and the tumor volumes were calculated using the formula: Tumor volume=1/2×major axis×minor axis. […] “T” represents average tumor volume of the experimental group (cm^3), and “C” represents average tumor volume of the control group (cm^3). The animals were monitored at all times. The bodyweight and major/minor axis or mice were measured twice a week. When the experiments were concluded, mice were sacrificed and tumors were extracted and weighted.
Tumor volumes were represented with average±standard error. Data analysis was done using Spss16.0, One-Way ANOVA, LSD (homogeneity of variance) or Dunnett T3 (non-homogeneity of variance). […] P<0.05 represents significant difference.

[4] = HuCTB006 0.2 mg/kg i.v. QW × 6W
[5] = HuCTB006 0.2 mg/kg i.v. QW × 6W, 0.2 mg/kg
[6] = HuCTB006 0.2 mg/kg i.v. QW × 6W, listed as HUCTB006, 0.2 mg/kg
[7] = HuCTB006 0.6 mg/kg i.v. QW × 6W
[8] = HuCTB006 0.6 mg/kg i.v. QW × 6W, 0.6 mg/kg
[9] = HuCTB006 0.6 mg/kg i.v. QW × 6W, listed as HUCTB006, 0.6 mg/kg
[10] = HuCTB006 1.8 mg/kg i.v. QW × 6W
[11] = HuCTB006 1.8 mg/kg i.v. QW × 6W, 1.8 mg/kg
[12] = HuCTB006 1.8 mg/kg i.v. QW × 6W, listed as HUCTB006, 1.8 mg/kg
[13] = HuCTB006 5.4 mg/kg i.v. QW × 6W
[14] = HuCTB006 5.4 mg/kg i.v. QW × 6W, 5.4 mg/kg
[15] = HuCTB006 5.4 mg/kg i.v. QW × 6W, listed as HUCTB006, 5.4 mg/kg
[16] = repeated experiment, HuCTB006 0.2 mg/kg
[17] = repeated experiment, HuCTB006 0.6 mg/kg
[18] = repeated experiment, HuCTB006 1.8 mg/kg
[19] = repeated experiment, HuCTB006 5.4 mg/kg

For “HuCTB006: Monospecific humanized chimeric monoclonal antibody directed to TRAIL-R2 receptor; heavy chain SEQ ID NO: 14, light chain SEQ ID NO: 12”, the “cross-reaction with coated antigen” value [1] was “no cross-reaction”, the “cross-reaction with coated antigen” value [2] was “no cross-reaction” and the “cross-reaction with coated antigen” value (DR4-His-EC) was “no cross-reaction”. The “cross-reaction with coated antigen” value [3] was “no cross-reaction”, the “In vitro cytotoxic sensitivity of CTB006” value (BT-20) was “Non-responder” and the “In vitro cytotoxic sensitivity of CTB006” value (SW620) was “Non-responder”. The “T/C % (Calculated using tumor volumes)” value (H2122; [4]) was 92.13%, the “Time of tumor volume changed significantly” value (H2122; [4]) was 8 and the “Tumor Volume Mean ± SEM” value (H2122; [4]) was 1.85 ± 0.15 cm^3. The “Tumor weight Mean ± SEM” value (H2122; [4]) was 1.54 ± 0.09 g, the “TGI (Calculated using tumor volumes)” value (H2122; [5]) was 11.56% and the “TGI (Calculated using tumor weight)” value (H2122; [5]) was 6.45%. The “TGI (Calculated using tumor volumes)” value (H2122; [6]) was 11.56%, the “TGI (Calculated using tumor weight)” value (H2122; [6]) was 6.45%^5 and the “T/C % (Calculated using tumor volumes)” value (H2122; [7]) was 50.75%. The “Tumor Volume Mean ± SEM” value (H2122; [7]) was 1.02 ± 0.31 cm^3, the “Tumor weight Mean ± SEM” value (H2122; [7]) was 0.89 ± 0.29 g and the “TGI (Calculated using tumor volumes)” value (H2122; [8]) was 51.06%. For the same substance, the “TGI (Calculated using tumor weight)” value (H2122; [8]) was 45.66%, the “TGI (Calculated using tumor volumes)” value (H2122; [9]) was 51.06%^3 and the “TGI (Calculated using tumor weight)” value (H2122; [9]) was 45.66%^4. For the same substance, the “T/C % (Calculated using tumor volumes)” value (H2122; [10]) was 6.46%, the “Tumor Volume Mean ± SEM” value (H2122; [10]) was 0.16 ± 0.16 cm^3 and the “Tumor weight Mean ± SEM” value (H2122; [10]) was 0.12 ± 0.12 g. The “TGI (Calculated using tumor volumes)” value (H2122; [11]) was 92.08%, the “TGI (Calculated using tumor weight)” value (H2122; [11]) was 92.48% and the “TGI (Calculated using tumor volumes)” value (H2122; [12]) was 92.08%**^2. For the same substance, the “TGI (Calculated using tumor weight)” value (H2122; [12]) was 92.48%*, the “T/C % (Calculated using tumor volumes)” value (H2122; [13]) was 5.54% and the “Tumor Volume Mean ± SEM” value (H2122; [13]) was 0.18 ± 0.18 cm^3. For the same substance, the “Tumor weight Mean ± SEM” value (H2122; [13]) was 0.19 ± 0.18 g, the “TGI (Calculated using tumor volumes)” value (H2122; [14]) was 91.23% and the “TGI (Calculated using tumor weight)” value (H2122; [14]) was 8.62%. For the same substance, the “TGI (Calculated using tumor volumes)” value (H2122; [15]) was 91.23%**, the “TGI (Calculated using tumor weight)” value (H2122; [15]) was 88.62%*^1 and the Bodyweights (H2122; Taxol group, HuCTB006 0.2 mg/kg group) was “decreased, but were maintained at an acceptable level”. The Tumor regression (H2122; first experiment) was “some animals of HuCTB006 treatment groups showed tumor regression”, the Tumor regression (H2122; repeated experiment) was “some animals of CTB006 treatment groups showed tumor regression” and the “TGI (Calculated using tumor volume)” value (H2122; [16]) was 35.26%. The “TGI (Calculated using tumor weight)” value (H2122; [16]) was 32.46%, the “TGI (Calculated using tumor volume)” value (H2122; [17]) was 67.66% and the “TGI (Calculated using tumor weight)” value (H2122; [17]) was 65.94%. For the same substance, the “TGI (Calculated using tumor volume)” value (H2122; [18]) was 60.12%, the “TGI (Calculated using tumor weight)” value (H2122; [18]) was 64.21% and the “TGI (Calculated using tumor volume)” value (H2122; [19]) was 91.69%. For the same substance, the “TGI (Calculated using tumor weight)” value (H2122; [19]) was 92.25%.

From US20180125993A1 (BEIJING COTIMES BIOTECH COMPANY LIMITED, priority 2014, published 2018)
